The record followed here is patent US11179471B2, “Peptide for cytosolic delivery” (priority 2017, dated 2021).

One data set has as its system RAW 264.7 cells. The data set is described as follows: Cell-killing assay by intracellular delivery of toxin protein saporin (WST-8). Type of data set: cell-based. Particulars: saporin 10 μg/mL, 40 μM. As for the experimental part: Saporin is known as a cytotoxin that kills cancer cells by its intracellular delivery. RAW 264.7 cells and saporin (10 μg/mL) were incubated in the presence of HAad, HA/E2, or L17E (40 μM each) in α-MEM(−) medium for 1 hour. After the cells were then washed and the medium was replaced with DMEM(+), the cells were further incubated for 6 hours. The cell viability (%) was assayed by WST-8 assay (FIG. 10).
On the technique in general: Formazan colour is commonly taken as a measure of viable cells.

The subject of data set [1] is mitochondrial membrane of HeLa cells. Particulars: HeLa; 40 μM, 1 hour in α-MEM(−); Lipofectamine LTX/pCI complex overnight in α-MEM(+). From the text:
Mitochondrial membranes are considered to be rich in acidic lipid, as compared with cell membranes. Accordingly, the effects of the above peptides on a mitochondrial membrane were examined by JC-1 assay. A JC-1 reagent emits red (J-aggregate) fluorescence when the mitochondrial membrane is kept normal and the membrane potential is maintained; and the JC-1 reagent emits green (J-monomer) fluorescence when the mitochondrial membrane is damaged and the membrane potential is not kept normal. After HeLa cells were incubated with HAad, HA/E2, or L17E (40 μM) in α-MEM(−) for 1 hour, JC-1 assay was performed. The percentage of cells that emitted red fluorescence was assayed by flow cytometry.

The test system of a further data set is HeLa cells. The data set is described as follows: Release of Alexa 488-dextran (10 kDa) into the cytoplasm, confocal microscopy. Type of data set: cell-based. As for the experimental part:
Cells; HeLa, peptides; 40 μM, Alexa 488-dextran (10 kDa); 200 μg/mL, treatment; 1 hr in α-MEM(−).
Cells; HeLa, peptides; 40 μM, Alexa 488-dextran (10 kDa); 200 μg/mL, treatment; 1 hr in α-MEM(−). The results are presented as means ±SE (n=3). **; p<0.01 (Student's t-test).
Cells; HeLa, peptides; 40 μM, Alexa 488-dextran (10 kDa); 200 μg/mL, treatment; 1 hr in α-MEM(−). Results are presented as means±SE (n=3). *; p<0.05, **; p<0.01, ***; p<0.001 (one-way ANOVA followed by the Tukey-Kramer honestly significant difference test (post-hoc test)).
In the presence of each peptide obtained in Example 1 (L17E, L17E/Q21E, HA/E1, HA/E2) (40 μM) or in the absence of the peptides (a control, no peptide), HeLa cells and Alexa 488-dextran (Molecular Probes, 10 kDa) (200 μg/mL) were treated in α-MEM(−) for 1 hour. The cells were washed, and observed with a confocal microscope.
In the presence of each peptide obtained in Example 1 (L17E, L17Aad) (40 μM) or in the absence of the peptides (a control, no peptide), HeLa cells and Alexa 488-dextran (Molecular Probes, 10 kDa) (200 μg/mL) were treated in α-MEM(−) for 1 hour. The cells were washed, and observed with a confocal microscope.
In the presence of each peptide obtained in Example 1 (HAad, HA/E2, L17Aad, L17E) (40 μM) or in the absence of the peptides (a control, no peptide), HeLa cells and Alexa 488-dextran (Molecular Probes, 10 kDa) (200 μg/mL) were treated in α-MEM(−) for 1 hour. The cells were washed, and observed with a confocal microscope.
When HeLa cells were incubated with Alexa 488-dextran (10 kDa) (200 μg/mL) as a macromolecular drug model in the presence of HAad (40 μM) in α-MEM(−) for 1 hour, Alexa 488-dextran release into about 75% of cells (cytosol) was observed. In contrast, when the incubation was performed in the presence of L17E, Alexa 488-dextran release into about 50% of the cells was observed.
HeLa cells, Alexa 488-dextran (Molecular Probes, 10 kDa) (200 μg/mL), and HAad; or HeLa cells, Alexa 488-dextran, (Molecular Probes, 10 kDa) (200 μg/mL), and HAad-homoR (20 μM) were treated in α-MEM(−) for 1 hour. The cells were washed, and observed with a confocal microscope.

Data set [2] is described as follows: Helix content from CD spectra in the presence of POPC/POPG (3:1) liposomes. Type of data set: physicochemical. As to conditions: result in words (FIG. 1). As for the experimental part:
The helix content was calculated by the method of Y. H. Chen et al., 1972, based on 222-nm molar ellipticity ([…]) using the following formula: Helicity (%)=−([θ]222+2340)/30300*100.
The helix content of the peptides obtained in Example 1 (L17E, L17E/Q21E, L17Aad, HA/E1, HA/E2, and HAad) was calculated in the presence of POPC/POPG (3:1) liposomes by the method of Y. H. Chen et al., 1972, based on 222-nm molar ellipticity ([θ]222) using the following formula: Helix content (%)=−([θ]222+2340)/30300*100. Further, the CD spectra of the peptides were measured.

“Also recorded” adds a separate entry of the source. Residues, ends and D or L forms follow the SMILES beside them.

For the compound `CC[C@H](C)[C@H](N)C(=O)N[C@@H](Cc1c[nH]c2ccccc12)C(=O)N[C@@H](CC(C)C)C(=O)N[C@H](C(=O)N[C@@H](C)C(=O)N[C@@H](CC(C)C)C(=O)N[C@@H](CCCCN)C(=O)N[C@@H](Cc1ccccc1)C(=O)N[C@@H](CC(C)C)C(=O)NCC(=O)N[C@@H](CCCCN)C(=O)N[C@@H](C)C(=O)N[C@@H](C)C(=O)N[C@@H](C)C(=O)N[C@@H](CCCCN)C(=O)N[C@@H](C)C(=O)N[C@@H](CCCC(=O)O)C(=O)N[C@@H](C)C(=O)N[C@@H](CCCCN)C(=O)N[C@@H](CCC(N)=O)C(=O)N[C@@H](CCCC(=O)O)C(=O)N[C@@H](CC(C)C)C(=O)N[C@@H](CO)C(=O)N[C@@H](CCCCN)C(=O)N[C@@H](CC(C)C)C(N)=O)[C@@H](C)O` [HAad, H-IWLTALKFLGKAAAKAXAKQXLSKL-amide] (HELM PEPTIDE1{I.W.L.T.A.L.K.F.L.G.K.A.A.A.K.A.[O=C(O)CCC[C@H](N[*:1])C(=O)[*:2]].A.K.Q.[O=C(O)CCC[C@H](N[*:1])C(=O)[*:2]].L.S.K.L.[am]}$$$$V2.0), the “cell viability relative to that in the presence of L17E” value in the data set on RAW 264.7 cells is “¼”. Further, the “effect on mitochondrial membrane (cells emitting red JC-1 fluorescence), in words” value in data set [1] is “no significant difference from the untreated case”. In the data set with HeLa cells (peptide 20 μM, Alexa 488-dextran (10 kDa) 200 μg/mL, 1 hour in α-MEM(−)), the “cells in which release of Alexa 488-dextran into the cytoplasm was observed” value is recorded as “about 40%”. Moreover, in the data set with HeLa cells (peptide 40 μM, Alexa 488-dextran 200 μg/mL, 1 hr, compared with L17E), the “endosome-encapsulated substance (Alexa 488-dextran) releasing activity, in words” value is reported as “higher endosomal content release activity than L17E; also recorded: Significant outflow; also recorded: much more effectively”. Besides, the “cells in which Alexa 488-dextran release into the cytosol was observed” value in the data set with HeLa cells (peptide 40 μM, Alexa 488-dextran (10 kDa) 200 μg/mL, 1 hour in α-MEM(−)) was “about 75%”. Besides, in data set [2], the “helicity in the presence of an acidic lipid membrane” value is recorded as “high helicity”.
